Data set [1] deals with T1, Aldo-keto reductase family 1 member C2 (Homo sapiens, UniProt P52895).
T1 sequence (P52895 whole entry): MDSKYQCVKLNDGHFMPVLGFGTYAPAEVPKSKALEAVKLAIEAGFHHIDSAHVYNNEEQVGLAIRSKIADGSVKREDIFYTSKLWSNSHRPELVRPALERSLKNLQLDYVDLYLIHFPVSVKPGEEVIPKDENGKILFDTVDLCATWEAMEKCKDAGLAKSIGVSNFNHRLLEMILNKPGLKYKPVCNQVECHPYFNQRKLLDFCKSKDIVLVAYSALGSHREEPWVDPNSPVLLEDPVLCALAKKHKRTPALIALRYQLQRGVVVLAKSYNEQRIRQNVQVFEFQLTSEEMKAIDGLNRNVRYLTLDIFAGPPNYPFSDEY
In words: Drug metabolism in human recombinant AKR1C2 expressing HEK293 cells treated with 20 uM boceprevir assessed as 1 mM ibuprofen-mediated inhibition of AKR1C2-mediated metabolite formation after 120 mins in presence of NADPH by LC-MS/MS/FSA method. To be noted: hek293, 2 h. Also noted: interact cpd dose 1 mM. It counts as ADME, cell-based.

Data set [2] concerns the target T2, Aldo-keto reductase family 1 member C3 (Homo sapiens, UniProt P42330).
T2 sequence (P42330 whole entry): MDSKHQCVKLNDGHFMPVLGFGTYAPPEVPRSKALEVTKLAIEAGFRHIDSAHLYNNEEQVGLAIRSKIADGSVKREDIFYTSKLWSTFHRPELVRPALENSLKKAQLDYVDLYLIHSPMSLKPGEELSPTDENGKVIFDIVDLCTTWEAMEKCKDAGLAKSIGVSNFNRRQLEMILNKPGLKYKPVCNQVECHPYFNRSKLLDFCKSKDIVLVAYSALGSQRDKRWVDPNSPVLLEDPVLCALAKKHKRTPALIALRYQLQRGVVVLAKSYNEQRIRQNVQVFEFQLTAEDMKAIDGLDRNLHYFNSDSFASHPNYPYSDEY
In words: Drug metabolism in human recombinant […] HEK293 cells treated with 20 uM boceprevir assessed as 100 uM diazepam-mediated inhibition of AKR1C3-mediated metabolite formation after 120 mins in presence of NADPH by LC-MS/MS/FSA method. Further details: interact cpd dose 100 uM. The note with it: hek293, 2 h. It counts as ADME, cell-based.

Data set [3] relates to Liver cytosol. In words: Drug metabolism in human liver cytosol treated with 20 uM [14C]SCH 534128 assessed as 100 uM diazepam-mediated inhibition of metabolite formation LC-MS/MS/FSA method. Format: ADME, tissue-based. Further details: interact cpd dose 100 uM.
Data set [4] concerns Liver cytosol. In words: Drug metabolism in human liver cytosol treated with 20 uM [14C]boceprevir assessed as quercetin-mediated inhibition of metabolite formation by LC-MS/MS/FSA method. Format: ADME, tissue-based.
The nature of data set [5]: Drug metabolism in human liver S9 fraction treated with 20 uM assessed as compound formation in presence of NADPH generating system by LC-MS/MS/FSA method. It counts as ADME, subcellular.
The subject of data set [6] is Liver cytosol. In words: Drug metabolism in human liver cytosol at 20 uM assessed as (1R,2S,5S)-N-((2R,3R)-4-amino-1-cyclobutyl-3-hydroxy-4-oxobutan-2-yl)-3-((S)-2-(3-tert-butylureido)-3,3-dimethylbutanoyl)-6,6-dimethyl-3-azabicyclo[3.1.0]hexane-2-carboxamide formation at 20 uM after 60 mins in presence of AKR inhibitor diazepam by LC-MS/MS/FSA method. It counts as ADME. To be noted: 1 h.

A further data set concerns Liver microsome. Kind of data set: Drug metabolism in human liver microsomes treated with 5 uM [14C]boceprevir assessed as compound formation by LC-MS/FSA method relative to total [14C]boceprevir. It counts as ADME.
The next data set concerns the target Cytochrome P450 3A4 (Homo sapiens, UniProt P08684). In words: Drug metabolism assessed as human CYP3A4-mediated compound formation from 5 uM [14C]boceprevir after 120 mins by LC-MS/FSA method relative to total [14C]boceprevir. It counts as ADME. To be noted: recombinant enzyme, 2 h, BLD = below limit of detection.
The target of another data set is Cytochrome P450 3A5 (Homo sapiens, UniProt P20815). Kind of data set: Drug metabolism assessed as human CYP3A5-mediated compound formation from 5 uM [14C]boceprevir after 120 mins by LC-MS/FSA method relative to total [14C]boceprevir. Format: ADME. To be noted: recombinant enzyme, 2 h.
Sequence of Cytochrome P450 3A5 (P20815 whole entry): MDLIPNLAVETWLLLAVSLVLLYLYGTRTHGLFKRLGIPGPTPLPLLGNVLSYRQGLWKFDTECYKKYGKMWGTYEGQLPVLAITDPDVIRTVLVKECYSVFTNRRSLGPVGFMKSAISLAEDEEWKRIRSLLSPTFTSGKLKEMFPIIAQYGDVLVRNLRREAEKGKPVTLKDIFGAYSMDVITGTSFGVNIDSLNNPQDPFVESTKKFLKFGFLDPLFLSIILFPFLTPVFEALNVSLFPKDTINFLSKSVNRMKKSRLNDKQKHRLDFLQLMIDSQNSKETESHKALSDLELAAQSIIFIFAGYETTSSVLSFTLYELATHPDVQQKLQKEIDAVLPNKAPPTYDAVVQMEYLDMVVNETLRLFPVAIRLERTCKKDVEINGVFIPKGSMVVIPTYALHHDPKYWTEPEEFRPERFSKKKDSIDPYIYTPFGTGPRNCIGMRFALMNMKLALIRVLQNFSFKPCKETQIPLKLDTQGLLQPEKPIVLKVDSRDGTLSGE
Data set [7] deals with Liver cytosol. In words: (§1) Drug metabolism in human liver cytosol at 20 uM assessed as (1R,2S,5S)-N-((2S,3R)-4-amino-1-cyclobutyl-3-hydroxy-4-oxobutan-2-yl)-3-((S)-2-(3-tert-butylureido)-3,3-dimethylbutanoyl)-6,6-dimethyl-3-azabicyclo[3.1.0]hexane-2-carboxamide formation at 20 uM after 60 mins in presence of AKR inhibitor diazepam by LC-MS/MS/FSA method. It counts as ADME. To be noted: 1 h.

For data set [8], the system named is Liver cytosol. Kind of data set: Drug metabolism in human liver cytosol at 20 uM assessed as (1R,2S,5S)-N-((2S,3R)-4-amino-1-cyclobutyl-3-hydroxy-4-oxobutan-2-yl)-3-((S)-2-(3-tert-butylureido)-3,3-dimethylbutanoyl)-6,6-dimethyl-3-azabicyclo[3.1.0]hexane-2-carboxamide formation at 20 uM after 60 mins in presence of AKR inhibitor ibuprofen by LC-MS/MS/FSA method. The note with it: 1 h. Format: ADME.

A short description of data set [9]: Drug excretion in human feces. Format: ADME. Further details: dosed compound name [14C]-SCH 534128.
Data set [10] relates to Liver cytosol. Kind of data set: Drug metabolism in human liver cytosol at 20 uM assessed as (1R,2S,5S)-N-((2S,3R)-4-amino-1-cyclobutyl-3-hydroxy-4-oxobutan-2-yl)-3-((S)-2-(3-tert-butylureido)-3,3-dimethylbutanoyl)-6,6-dimethyl-3-azabicyclo[3.1.0]hexane-2-carboxamide formation in presence of allopurinol by LC-MS/MS/FSA method. It counts as ADME.
In data set [11] the test system is Liver cytosol. In words: Drug metabolism in human liver cytosol at 20 uM assessed as (1R,2S,5S)-N-((2S,3R)-4-amino-1-cyclobutyl-3-hydroxy-4-oxobutan-2-yl)-3-((S)-2-(3-tert-butylureido)-3,3-dimethylbutanoyl)-6,6-dimethyl-3-azabicyclo[3.1.0]hexane-2-carboxamide formation in presence of phenolphthalein by LC-MS/MS/FSA method. It counts as ADME.
A short description of data set [12]: Drug metabolism in human liver S9 fraction at 20 uM assessed as (1R,2S,5S)-N-((2S,3R)-4-amino-1-cyclobutyl-3-hydroxy-4-oxobutan-2-yl)-3-((S)-2-(3-tert-butylureido)-3,3-dimethylbutanoyl)-6,6-dimethyl-3-azabicyclo[3.1.0]hexane-2-carboxamide formation in presence of phenolphthalein by LC-MS/MS/FSA method. Format: ADME, subcellular. To be noted: s9, 20 µM.
Data set [13] can be described thus: Drug metabolism in human liver S9 fraction at 20 uM assessed as (1R,2S,5S)-N-((2S,3R)-4-amino-1-cyclobutyl-3-hydroxy-4-oxobutan-2-yl)-3-((S)-2-(3-tert-butylureido)-3,3-dimethylbutanoyl)-6,6-dimethyl-3-azabicyclo[3.1.0]hexane-2-carboxamide formation in presence of menadione by LC-MS/MS/FSA method. It counts as ADME, subcellular. The note with it: s9, 20 µM.
The subject of data set [14] is Liver cytosol. In words: Drug metabolism in human liver cytosol at 20 uM assessed as (1R,2S,5S)-N-((2S,3R)-4-amino-1-cyclobutyl-3-hydroxy-4-oxobutan-2-yl)-3-((S)-2-(3-tert-butylureido)-3,3-dimethylbutanoyl)-6,6-dimethyl-3-azabicyclo[3.1.0]hexane-2-carboxamide formation in presence of menadione by LC-MS/MS/FSA method. It counts as ADME.
Data set [15] addresses T1, Aldo-keto reductase family 1 member C2. Kind of data set: Activity of human recombinant AKR1C2 expressed in HEK293 cells assessed as (1R,2S,5S)-N-((2R,3R)-4-amino-1-cyclobutyl-3-hydroxy-4-oxobutan-2-yl)-3-((S)-2-(3-tert-butylureido)-3,3-dimethylbutanoyl)-6,6-dimethyl-3-azabicyclo[3.1.0]hexane-2-carboxamide formation at 20 uM after 120 mins in presence of NADPH by LC-MS/MS/FSA method. It counts as ADME, cell-based. The note with it: hek293, 2 h.

The subject of data set [16] is Liver cytosol. The description is as §1. Format: ADME. The note with it: 1 h. The source holds these as a separate data set.

Sequence of Cytochrome P450 3A4 (P08684 whole entry): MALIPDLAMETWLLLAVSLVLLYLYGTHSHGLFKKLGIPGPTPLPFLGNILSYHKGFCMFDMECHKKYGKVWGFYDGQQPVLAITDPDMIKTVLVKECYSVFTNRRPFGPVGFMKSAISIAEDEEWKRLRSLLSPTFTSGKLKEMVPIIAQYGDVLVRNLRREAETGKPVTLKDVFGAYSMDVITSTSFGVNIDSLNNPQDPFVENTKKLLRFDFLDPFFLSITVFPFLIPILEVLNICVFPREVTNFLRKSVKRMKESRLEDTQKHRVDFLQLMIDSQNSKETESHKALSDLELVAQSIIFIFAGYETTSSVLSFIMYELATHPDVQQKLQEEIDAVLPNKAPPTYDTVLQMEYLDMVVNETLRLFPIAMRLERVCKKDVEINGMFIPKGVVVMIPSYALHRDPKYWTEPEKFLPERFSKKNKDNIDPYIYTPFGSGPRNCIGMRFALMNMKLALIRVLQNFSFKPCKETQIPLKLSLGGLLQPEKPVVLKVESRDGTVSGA

For `CC(C)(C)NC(=O)N[C@H](C(=O)N1C[C@H]2[C@@H]([C@H]1C(=O)N[C@@H](CC1CCC1)[C@@H](O)C(N)=O)C2(C)C)C(C)(C)C`, the “inhibition (INH)” value in data set [1] is greater than 89%; in data set [2], 80%; in the data set on Liver cytosol [3] it was 72.9%; in the data set on Liver cytosol [4], less than 30%. For the same compound, in [5], the Compound recovery came to 28%.

Take `CC(C)(C)NC(=O)N[C@H](C(=O)N1C[C@H]2[C@@H]([C@H]1C(=O)N[C@H](CC1CCC1)C(=O)C(N)=O)C2(C)C)C(C)(C)C`: the Compound recovery entry in the data set on Liver cytosol [6] is given as “metabolite_not_detected”; in the data set with Liver microsome, 0.31%; on Cytochrome P450 3A4, “BLD”; on Cytochrome P450 3A5 it was 2.19%.

For the compound `CC(C)(C)NC(=O)N[C@H](C(=O)N1C[C@H]2[C@@H]([C@H]1C(=O)NC(CC1CCC1)C(=O)C(N)=O)C2(C)C)C(C)(C)C` (some centres undefined) [BOCEPREVIR], the Compound recovery result in the data set with Liver cytosol [7] is recorded as “metabolite_not_detected”; in the data set with Liver cytosol [8], “metabolite_not_detected”; in the data set with Liver cytosol [10] it was “metabolite_detected”; in the data set on Liver cytosol [11] it was “metabolite_not_detected”; in data set [12] it was “metabolite_not_detected”; in [13] it was “metabolite_not_detected”. Moreover, the results for the Compound recovery result (in the data set on Liver cytosol [14]; in [15]; with Liver cytosol [16]) were “metabolite_not_detected”, “metabolite_detected” and “metabolite_not_detected”, respectively. For the same compound, the Radiolabel recovery entry in [9] was “metabolite_not_detected”.
